Source: patent US20130072385A1, “METHODS FOR DELAYING BUD BREAK BY APPLYING ABA ANALOGS” (priority 2011, published 2013)

Columns and labels:
[1] = system: Cabernet Franc grapevines; test: Fall foliar spray of mature Cabernet Franc grapevines, bud break the following spring (BBCH rating); assay type: in vivo; design: key to Average BBCH rating of bud developmental stages: BBCH scale: 1 = first bud swelling, 99 = defoliated, re-entering dormancy; conditions: for Average BBCH rating of bud developmental stages: 300 ppm in 0.1% Brij 98, fall foliar application; for Delay of bud break the following spring / Impact on bud mortality: foliar application at about 0.125 grams per vine in the fall
Protocol: (§1) A study was conducted to determine the effect of spraying grapevines with ABA analogs in the fail on bud break the following spring. Mature Cabernet Franc grapevines growing in a research vineyard in Benton Harbor, Mich. were sprayed to drip with surfactant alone or surfactant and ABA analog on Oct. 25, 2008. Vines were sprayed with approximately 300 ml (113 grams ABA analog/acre) applied to each of 9 vines per treatment arranged in three replicates of three vines each. The following spring prior to bud break the vines were pruned to 3-6 buds per spur and bud break of 40 buds per vine (4 buds on each of 10 spurs) was rated periodically using the BBCH (Biologische Bundesanstalt, Bundessortenamt und Chemische Industrie) scale of development where a rating of 1 represents the first sign of bud swelling and 99 represents a defoliated plant re-entering dormancy at the end of the growing season.

[2] = system: Cabernet Franc grapevines; test: Fall foliar spray of Cabernet Franc grapevines with PBI-425 or PBI-524, broken buds the following spring; assay type: in vivo; conditions: for Average number of broken buds per vine: Apr. 11, 2012; for Effect on bud break the following spring / Impact on bud mortality: foliar application at about 0.03-0.3 grams per vine in the fall
Protocol: A study was conducted to determine the elect of spraying Cabernet Franc grapevines with ABA analog PBI-425 or PBI-524 in the fall on bud break the following spring. Mature Cabernet Franc grapevines growing in a research vineyard in Benton Harbor, Mich. were sprayed to drip with surfactant alone or surfactant and ABA analog on Oct. 21, 2011. Vines were sprayed with approximately 300 ml applied to each of 9 vines per treatment arranged in three replicates of three vines each. Applied at about 100 gallons per acre 100 ppm treatment represents 37.8 grams per acre and 1000 ppm represents 378.4 grams per acre. In the spring after treatment prior to bud break the vines were pruned to 3-6 buds per spur and bud break of the entire vine was determined in the spring.

[3] = system: Cabernet Franc grapevines; test: Fall foliar spray of Cabernet Franc grapevines, fruit maturity the following fall (juice pH and Brix); assay type: in vivo; conditions: for Brix of juice / pH of juice: 300 ppm in 0.1% Brij 98, fall foliar application, grapes harvested on Oct. 24, 2009; for Effect on maturation of the following crop of grapes (juice pH and Brix): foliar application at about 0.125 grams per vine in the fall
Protocol: as §1
When the control fruit had reached maturity three clusters of grapes were randomly harvested from each 3 vine replicate. Brix and pH measurements were made of the juice expressed by hand squeezing the grape clusters. Both the pH and Brix readings were lower for the grapes from the ABA analog treated vines indicating a delay of fruit maturity.

Concord grapevines [4] = test: Fall soil drench of potted Concord grapevines, bud break the following spring; assay type: in vivo; design: key to Average rating of bud break (1-6 scale): 1 = no growth to 6 = three or more leaves showing; conditions: for Average rating of bud break (1-6 scale): 100 ppm (100 mg/pot) fall soil drench
Protocol: A study was conducted to determine the effect of application of ABA or ABA analog as a soil drench in the fall on bud break of potted Concord grapevines the following spring. Two year old eco-dormant Concord grapevines were obtained from a Concord Nurseries in the spring. Bare-root vines were planted in 14 liter pots filled with Promix BX (available from Premier Horticulture Inc. Quakertown, Pa.) and grown outside for about 5 months (May October) prior to treatment. Plants received irrigation as needed and fertilized weekly (1 g/L all purpose fertilizer 20-20-20, The Scotts Company, Marysville, Ohio). Uniform plants were selected for the study. A total of 1000 mL of water or chemical solution was applied to the soil of each plant.
After chemical treatment, the ten replicate plants per treatment were arranged in a randomized complete block experimental design. The potted vines were surrounded by bark chips the depth of the soil in the pot to insulate the roots and prevent cold damage. The plants became dormant for the winter. In the following spring the vines were pruned to 5 buds per vine before bud break and bud break was monitored over time (Table 4). The buds were rated for bud break periodically on a scale from 1 for no growth to 6 for three or more leaves showing
Potted Concord grapevines were treated with 1000 mL water, solution containing 1000 mg ABA or solution containing 100 mg PBI-429. The dose of RBI-429 was used at one-tenth of ABA dose based on the preliminary results.

PF-11 nectarine trees [5] = test: Fall foliar spray of PF-11 nectarine trees, bud break the following spring; assay type: in vivo
Protocol: (§2) A study was conducted to determine the effect of spraying nectarine trees with ABA or ABA analogs in the fall on bud break the following spring. Mature PF-11 nectarine trees were sprayed to drip with surfactant alone or surfactant and ABA or ABA analog on Oct. 19, 2009. Trees were sprayed with approximately 500 ml (20.5 grams ABA analog/acre) applied to each of 6 trees per treatment arranged in a randomized complete block design. The following spring bud break on pre-selected branches was monitored.

PF-11 nectarine trees [6] = test: Fall foliar spray of PF-11 nectarine trees, fruit number per tree the following spring; assay type: in vivo
Protocol: as §2

Concord grapevines [7] = test: Repeated spray of potted Concord grapevines during the bud break period; assay type: in vivo; conditions: for Average number of broken buds per vine: 100 ppm in 0.05% Silwet L77, repeated spray
Protocol: A study was conducted to determine the effect of spraying Concord grapevines with ABA or ABA analog PBI-429 during bud break. Potted concord grapevines were placed in greenhouse conditions to promote bud break and the vines were repeatedly sprayed with ABA or ABA analog solutions. The vines were sprayed 2, 4, 8, 12 and 14 days after exposure of the vines into bud break promoting temperatures. Bud break was rated 6, 7, 8, 11, 12, 13, 14, 15, 19 and 20 days after vines were placed in warm bud break promoting conditions.

Concord grape vines = test: Spring spray of eco-dormant field grown Concord grape vines, bud break; assay type: in vivo, Concord grapevines; conditions: 100 ppm PBI-429 plus 0.5% Brij 98, sprayed 2 times in spring
Protocol: A study was conducted to evaluate the effect of spraying eco-dormant Concord grape vines with ABA or ABA analog plus surfactants on bud break. Mature field grown Concord grape vines were sprayed to runoff 2 times in the spring after pruning and before bud swell. Three replicates of 3 vines each were treated with each treatment solution. Treatments were arranged in a randomized complete block design down a single vineyard row, Bud break was monitored by counting the number of broken buds of the distal 5 buds on 4 proximal canes on the middle vine of each 3 vine replicate. Bud break was only very slightly delayed by any of the treatments compared to the water sprayed control (Table 1).

[8] = 100 ppm in 0.1% Silwet Brij 98, fall foliar application

C#CC1(C)CC(=O)C=C(C)C1(O)C=CC(C)=CC(=O)O (racemic) [PBI-524]
Average BBCH rating of bud developmental stages ([1]; May 1, 2009): 0.0
Average BBCH rating of bud developmental stages ([1]; May 5): 0.4
Average BBCH rating of bud developmental stages ([1]; May 12): 1.0
Average BBCH rating of bud developmental stages ([1]; May 21): 3.7
Average BBCH rating of bud developmental stages ([1]; May 28): 6.7
Delay of bud break the following spring [1]: about 15 days
Impact on bud mortality [1]: without apparent impact on bud mortality
Average number of broken buds per vine [2, 8]: 13
Average number of broken buds per vine ([2]; 1000 ppm in 0.1% Silwet Brij 98, fall foliar application): 2
Effect on bud break the following spring [2]: delayed bud break
Impact on bud mortality [2]: without apparent impact on bud mortality
Brix of juice [3]: 19.37
pH of juice [3]: 3.14
Effect on maturation of the following crop of grapes (juice pH and Brix) [3]: delayed maturation

C#CC1(C)CC(=O)C=C(C)C1(O)C=CC(C)=CC(=O)O (centres unmarked) [PBI-425]
Average number of broken buds per vine [2, 8]: 11
Effect on bud break the following spring [2]: delayed bud break
Impact on bud mortality [2]: without apparent impact on bud mortality

C#CC1(C)CC(=O)C=C(C)C1(O)/C=C/C(C)=C\C(=O)OC (centres unmarked) [PBI-429, 8′acetylene-ABA methyl ester]
Delay of bud break compared to ABA treated or untreated vines (Concord grapevines [4]; 100 mg fall soil drench): about 2 weeks
Average rating of bud break (1-6 scale) (Concord grapevines [4]; Apr. 23, 2008): 1.0
Average rating of bud break (1-6 scale) (Concord grapevines [4]; April 28): 1.0
Average rating of bud break (1-6 scale) (Concord grapevines [4]; April 30): 1.0
Average rating of bud break (1-6 scale) (Concord grapevines [4]; May 2): 1.0
Average rating of bud break (1-6 scale) (Concord grapevines [4]; May 5): 1.0
Average rating of bud break (1-6 scale) (Concord grapevines [4]; May 7): 1.0
Average rating of bud break (1-6 scale) (Concord grapevines [4]; May 9): 1.0
Average rating of bud break (1-6 scale) (Concord grapevines [4]; May 12): 1.0
Average rating of bud break (1-6 scale) (Concord grapevines [4]; May 14): 1.0
Average rating of bud break (1-6 scale) (Concord grapevines [4]; May 16): 1.0
Average rating of bud break (1-6 scale) (Concord grapevines [4]; May 19): 1.2
Average rating of bud break (1-6 scale) (Concord grapevines [4]; May 21): 1.2
Average rating of bud break (1-6 scale) (Concord grapevines [4]; May 23): 1.8
Average rating of bud break (1-6 scale) (Concord grapevines [4]; May 28): 2.7
Potency relative to ABA in delaying bud break (PF-11 nectarine trees [5]; 100 ppm PBI-429 versus 10,000 ppm ABA, fall foliar application): about 100 times
Percentage of broken floral buds (PF-11 nectarine trees [5]; 100 ppm in 0.1% Brij 98, fall foliar application, April 8): 56 Percentage
Average BBCH rating of bud developmental stages ([1]; May 1, 2009): 0.1
Average BBCH rating of bud developmental stages ([1]; May 5): 0.4
Average BBCH rating of bud developmental stages ([1]; May 12): 1.0
Average BBCH rating of bud developmental stages ([1]; May 21): 3.2
Average BBCH rating of bud developmental stages ([1]; May 28): 6.0
Delay of bud break the following spring [1]: about 15 days
Impact on bud mortality [1]: without apparent impact on bud mortality
Average number of fruit per tree (PF-11 nectarine trees [6]; 100 ppm in 0.1% Brij 98, fall foliar application, June 10): 75
Effect on number of fruit per tree the following spring (PF-11 nectarine trees [6]; fall foliar application): reduced the number of fruit per tree
Average number of broken buds per vine (Concord grapevines [7]; 6 days after warming): 0.7
Average number of broken buds per vine (Concord grapevines [7]; 7 days after warming): 0.7
Average number of broken buds per vine (Concord grapevines [7]; 8 days after warming): 1.7
Average number of broken buds per vine (Concord grapevines [7]; 11 days after warming): 2.5
Average number of broken buds per vine (Concord grapevines [7]; 12 days after warming): 2.5
Average number of broken buds per vine (Concord grapevines [7]; 13 days after warming): 3.0
Average number of broken buds per vine (Concord grapevines [7]; 14 days after warming): 3.0
Average number of broken buds per vine (Concord grapevines [7]; 15 days after warming): 4.0
Average number of broken buds per vine (Concord grapevines [7]; 19 days after warming): 4.3
Average number of broken buds per vine (Concord grapevines [7]; 20 days after warming): 4.3
Effect on average number of broken buds over time (Concord grapevines [7]; repeated spray application during the bud break period): not significantly impacted
Average percent broken buds (Concord grape vines; April 24): 8%
Average percent broken buds (Concord grape vines; April 30): 18%
Brix of juice [3]: 19.32
pH of juice [3]: 3.16
Effect on maturation of the following crop of grapes (juice pH and Brix) [3]: delayed maturation
